Columns and labels:
Type in all cases: in vivo
Conditions in all cases: 12 days after treatment
[1] = test system: Alopecurus myosuroides (ALOMY); experiment: Example 3 glasshouse trial post-emergence in wheat, (I) and isoproturon
Protocol: (§1) A glasshouse trial was carried out post-emergence in wheat using a tank mixture comprising a phenoxypicolinamide derivative of formula I (at 1, 4 and 16 g/ha) and isoproturon (at 125, 250 and 500 g/ha) which was sprayed on the following weed species:
(§2) Alopecurus myosuroides (ALOMY), Setaria viridis (SETVI), Avena fatua (AVEFA), Echinochloa crus-galli (ECHCG) and Galium aparine (GALAP).

Avena fatua (AVEFA) [2] = experiment: as above
Protocol: as §1, §2

[3] = test system: Echinochloa crus-galli (ECHCG); experiment: as above
Protocol: as §1, §2

Galium aparine (GALAP) [4] = experiment: as above
Protocol: as §1, §2

Setaria viridis (SETVI) [5] = experiment: as above
Protocol: as §1, §2

Avena fatua (AVEFA) [6] = experiment: Example 4 glasshouse trial post-emergence in wheat, (I) and bromoxynil
Protocol: (§3) A glasshouse trial was carried out post-emergence in wheat using a tank mixture comprising a phenoxypicolinamide derivative of formula I (at 1, 4 and 16 g/ha) and bromoxynil (at 12.5, 50 and 200 g/ha) which was sprayed on the following weed species:
(§4) Setaria viridis (SETVI), Avena fatua (AVEFA), Echinochloa crus-galli (ECHCG) and Galium aparine (GALAP).

[7] = test system: Echinochloa crus-galli (ECHCG); experiment: as above
Protocol: as §3, §4

Galium aparine (GALAP) [8] = experiment: as above
Protocol: as §3, §4

Setaria viridis (SETVI) [9] = experiment: as above
Protocol: as §3, §4

[10] = test system: Alopecurus myosuroides (ALOMY); experiment: Example 5 glasshouse trial post-emergence in wheat, (I) and isoxaflutole
Protocol: (§5) A glasshouse trial was carried out post-emergence in wheat using a tank mixture comprising a phenoxypicolinamide derivative of formula I (at 1, 4 and 16 g/ha) and isoxaflutole (at 8, 16 and 32 g/ha) which was sprayed on the following weed species:
(§6) Alopecurus myosuroides (ALOMY) and Galium aparine (GALAP).

Galium aparine (GALAP) [11] = experiment: as above
Protocol: as §5, §6

O=C(Nc1ccc(F)cc1)c1cccc(Oc2cccc(C(F)(F)F)c2)n1 [(I), picolinafen]
% Weed Control ALOMY ([1]; 1 g ai/ha): 10%
% Weed Control ALOMY ([1]; 4 g ai/ha): 10%
% Weed Control ALOMY ([1]; 16 g ai/ha): 30%
% Weed Control AVEFA (Avena fatua (AVEFA) [2]; 1 g ai/ha): 10%
% Weed Control AVEFA (Avena fatua (AVEFA) [2]; 4 g ai/ha): 20%
% Weed Control AVEFA (Avena fatua (AVEFA) [2]; 16 g ai/ha): 40%
% Weed Control ECHCG ([3]; 1 g ai/ha): 10%
% Weed Control ECHCG ([3]; 4 g ai/ha): 10%
% Weed Control ECHCG ([3]; 16 g ai/ha): 40%
% Weed Control GALAP (Galium aparine (GALAP) [4]; 1 g ai/ha): 10%
% Weed Control GALAP (Galium aparine (GALAP) [4]; 4 g ai/ha): 40%
% Weed Control GALAP (Galium aparine (GALAP) [4]; 16 g ai/ha): 90%
% Weed Control SETVI (Setaria viridis (SETVI) [5]; 1 g ai/ha): 10%
% Weed Control SETVI (Setaria viridis (SETVI) [5]; 4 g ai/ha): 30%
% Weed Control SETVI (Setaria viridis (SETVI) [5]; 16 g ai/ha): 70%
% Weed Control AVEFA (Avena fatua (AVEFA) [6]; 1 g ai/ha): 10%
% Weed Control AVEFA (Avena fatua (AVEFA) [6]; 4 g ai/ha): 20%
% Weed Control AVEFA (Avena fatua (AVEFA) [6]; 16 g ai/ha): 40%
% Weed Control ECHCG ([7]; 1 g ai/ha): 10%
% Weed Control ECHCG ([7]; 4 g ai/ha): 10%
% Weed Control ECHCG ([7]; 16 g ai/ha): 40%
% Weed Control GALAP (Galium aparine (GALAP) [8]; 1 g ai/ha): 10%
% Weed Control GALAP (Galium aparine (GALAP) [8]; 4 g ai/ha): 40%
% Weed Control GALAP (Galium aparine (GALAP) [8]; 16 g ai/ha): 90%
% Weed Control SETVI (Setaria viridis (SETVI) [9]; 1 g ai/ha): 10%
% Weed Control SETVI (Setaria viridis (SETVI) [9]; 4 g ai/ha): 30%
% Weed Control SETVI (Setaria viridis (SETVI) [9]; 16 g ai/ha): 70%
% Weed Control ALOMY ([10]; 1 g ai/ha): 10%
% Weed Control ALOMY ([10]; 4 g ai/ha): 10%
% Weed Control ALOMY ([10]; 16 g ai/ha): 30%
% Weed Control GALAP (Galium aparine (GALAP) [11]; 1 g ai/ha): 10%
% Weed Control GALAP (Galium aparine (GALAP) [11]; 4 g ai/ha): 40%
% Weed Control GALAP (Galium aparine (GALAP) [11]; 16 g ai/ha): 90%

CC(C)c1ccc(NC(=O)N(C)C)cc1 [Compound (II), 3-(4-isopropylphenyl)-1,1-dimethylurea]
% Weed Control ALOMY ([1]; 125 g ai/ha): 0%
% Weed Control ALOMY ([1]; 250 g ai/ha): 0%
% Weed Control ALOMY ([1]; 500 g ai/ha): 20%
% Weed Control AVEFA (Avena fatua (AVEFA) [2]; 125 g ai/ha): 0%
% Weed Control AVEFA (Avena fatua (AVEFA) [2]; 250 g ai/ha): 30%
% Weed Control AVEFA (Avena fatua (AVEFA) [2]; 500 g ai/ha): 30%
% Weed Control ECHCG ([3]; 125 g ai/ha): 10%
% Weed Control ECHCG ([3]; 250 g ai/ha): 70%
% Weed Control ECHCG ([3]; 500 g ai/ha): 70%
% Weed Control GALAP (Galium aparine (GALAP) [4]; 125 g ai/ha): 0%
% Weed Control GALAP (Galium aparine (GALAP) [4]; 250 g ai/ha): 0%
% Weed Control GALAP (Galium aparine (GALAP) [4]; 500 g ai/ha): 0%
% Weed Control SETVI (Setaria viridis (SETVI) [5]; 125 g ai/ha): 50%
% Weed Control SETVI (Setaria viridis (SETVI) [5]; 250 g ai/ha): 70%
% Weed Control SETVI (Setaria viridis (SETVI) [5]; 500 g ai/ha): 100%

N#Cc1cc(Br)c(O)c(Br)c1 [Compound (III), 3,5-dibromo-4-hydroxybenzonitrile]
% Weed Control AVEFA (Avena fatua (AVEFA) [6]; 12.5 g ai/ha): 0%
% Weed Control AVEFA (Avena fatua (AVEFA) [6]; 50 g ai/ha): 0%
% Weed Control AVEFA (Avena fatua (AVEFA) [6]; 200 g ai/ha): 10%
% Weed Control ECHCG ([7]; 12.5 g ai/ha): 0%
% Weed Control ECHCG ([7]; 50 g ai/ha): 0%
% Weed Control ECHCG ([7]; 200 g ai/ha): 20%
% Weed Control GALAP (Galium aparine (GALAP) [8]; 12.5 g ai/ha): 0%
% Weed Control GALAP (Galium aparine (GALAP) [8]; 50 g ai/ha): 80%
% Weed Control GALAP (Galium aparine (GALAP) [8]; 200 g ai/ha): 100%
% Weed Control SETVI (Setaria viridis (SETVI) [9]; 12.5 g ai/ha): 0%
% Weed Control SETVI (Setaria viridis (SETVI) [9]; 50 g ai/ha): 20%
% Weed Control SETVI (Setaria viridis (SETVI) [9]; 200 g ai/ha): 20%

CS(=O)(=O)c1cc(C(F)(F)F)ccc1C(=O)c1cnoc1C1CC1 [Compound (IV), 5-cyclopropyl-4-(2-methylsulphonyl-4-trifluoromethyl)-benzoylisoxazole]
% Weed Control ALOMY ([10]; 8 g ai/ha): 10%
% Weed Control ALOMY ([10]; 16 g ai/ha): 20%
% Weed Control ALOMY ([10]; 32 g ai/ha): 40%
% Weed Control GALAP (Galium aparine (GALAP) [11]; 8 g ai/ha): 60%
% Weed Control GALAP (Galium aparine (GALAP) [11]; 16 g ai/ha): 60%
% Weed Control GALAP (Galium aparine (GALAP) [11]; 32 g ai/ha): 80%
